Assay [1] has as its target T1, Histamine H3 receptor (Homo sapiens, UniProt Q9Y5N1). Put plainly: Displacement of [3H]Nalpha-methylahistamine from human histamine H3 receptor.
The target in the next assay is Histamine H4 receptor (Homo sapiens, UniProt Q9H3N8). As to the kind of experiment: Displacement of [3H]histamine from human histamine H4 receptor.
The target of assay [2] is T1, Histamine H3 receptor. Put plainly: Binding affinity to histamine H3 receptor.

Among the data in ChEMBL document CHEMBL1159097, “Synthesis and structural and pharmacological properties of cyclopropane-based conformationally restricted analogs of 4-methylhistamine as histamine H3/H4 receptor ligands” (Bioorg Med Chem, 2010) are Ki values, retold here.

SMILES strings stand for the structures.

T1 sequence (Q9Y5N1 whole entry): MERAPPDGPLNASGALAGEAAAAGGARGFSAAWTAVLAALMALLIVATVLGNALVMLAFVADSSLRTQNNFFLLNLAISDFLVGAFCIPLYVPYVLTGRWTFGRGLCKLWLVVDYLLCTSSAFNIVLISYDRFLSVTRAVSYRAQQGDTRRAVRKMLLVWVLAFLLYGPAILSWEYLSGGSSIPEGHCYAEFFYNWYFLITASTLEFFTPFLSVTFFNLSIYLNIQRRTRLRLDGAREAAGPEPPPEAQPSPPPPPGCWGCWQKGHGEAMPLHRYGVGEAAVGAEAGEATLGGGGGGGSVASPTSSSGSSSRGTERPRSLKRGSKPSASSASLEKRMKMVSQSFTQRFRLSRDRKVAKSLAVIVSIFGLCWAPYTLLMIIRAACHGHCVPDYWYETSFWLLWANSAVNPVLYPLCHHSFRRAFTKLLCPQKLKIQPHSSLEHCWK
Histamine H4 receptor, sequence (Q9H3N8 whole entry): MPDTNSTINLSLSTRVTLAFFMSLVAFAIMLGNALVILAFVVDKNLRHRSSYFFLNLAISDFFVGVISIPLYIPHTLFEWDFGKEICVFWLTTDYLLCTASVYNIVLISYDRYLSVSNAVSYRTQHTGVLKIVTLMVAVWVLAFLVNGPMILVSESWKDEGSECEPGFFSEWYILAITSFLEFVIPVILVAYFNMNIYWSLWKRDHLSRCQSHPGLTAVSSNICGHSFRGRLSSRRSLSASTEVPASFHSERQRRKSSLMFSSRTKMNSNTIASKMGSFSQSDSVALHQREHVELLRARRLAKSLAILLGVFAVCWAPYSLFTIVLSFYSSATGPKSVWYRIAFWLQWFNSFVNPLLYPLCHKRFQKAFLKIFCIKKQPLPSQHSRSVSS

On to `Cc1nc[nH]c1[C@@H]1C[C@H]1CCNCc1ccc(Cl)cc1`, for which the inhibition constant (Ki) worked out at 38.7 nM at Histamine H3 receptor [1] and 148 nM at Histamine H4 receptor.
For `NCC[C@@H]1C[C@@H]1c1cnc[nH]1`, the Ki at Histamine H3 receptor [2] was determined as 1.3 nM. This counts as single-digit nanomolar.
With `Cc1[nH]cnc1[C@@H]1C[C@H]1CNCc1ccc(Cl)cc1`, the Ki on Histamine H3 receptor [1] and at Histamine H4 receptor was greater than 1000 nM throughout.

By Ki is commonly meant a measure of affinity in units of concentration, obtained from inhibition or displacement.
